The test system of the test is CEM cells HIV-1 protection, formazan growth assay. Description: NCI AIDS Antiviral Assay. The note with it: for IC50: measured here: growth of uninfected CEM cells. A digest of the protocol: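 Soluble formazan readout of cell growth; CEM cells ± HIV-1; 5 drug concs. ≥50% protection → retest; ≥50% again = moderately active; reproducible 100% = confirmed active.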

Calls of active or inactive are those of the source.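 How the source made its calls: active means compounds giving half or more protection of infected cells from virus-caused growth loss, again on retest; inactive means the rest.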

A word on the EC50: it is the concentration that produces a half-maximal response. As usually defined, the IC50 is the concentration needed to halve the response being measured. For `CN(c1ccccc1)S(=O)(=O)c1ccccc1[N+](=O)[O-]`, the EC50 was over 200 µM and the IC50 was 64.6 µM.

As to `Cc1c(C)n(-c2ccccc2)c2nc(S(C)(=O)=O)nc(S(C)(=O)=O)c12`, the EC50 is over 200 µM and the IC50 worked out at 0.288 µM. Regarding `COC(=O)[C@@H]1C[C@H]2[C@H](c3ccccc3Br)[C@@H](OC(C)=O)[C@@H](OCc3ccccc3)ON2O1`, the EC50 is over 200 µM and the IC50 was over 200 µM. For the molecule `COc1ccc(OC)c(C(=O)/C=C\C(=O)O)c1`, the EC50 was over 219 µM and the IC50 was determined as 24.5 µM.

Consider `Cc1ccc(C2(C(=O)O)CCCN2)cc1` (centres undefined), for which the EC50 was over 200 µM and the IC50 was over 200 µM.

Regarding `C/C(=N\NC(N)=O)c1cc2cc([N+](=O)[O-])ccc2oc1=O`, the EC50 was over 70.8 µM and the IC50 was over 70.8 µM. Regarding `C/C(=N\NC(=S)N1CCC(C2CCN(C(=S)N/N=C(\C)c3ccccn3)CC2)CC1)c1ccccn1`, the EC50 is over 3.8 µM and the IC50 stood at 1.91 µM. Consider `NC(=O)c1ncn(C/C=C/CO)c1N`, for which the EC50 is over 200 µM and the IC50 was over 200 µM. As for `CC1(C)CN=C(Nc2ccc(Cl)cc2)S1`, the outcome was inactive.

As for `Cc1cc(=O)[nH]c(NN2C(Cl)C(=O)C2c2cccc(Cl)c2)n1` (centres undefined), the EC50 is over 200 µM and the IC50 was 30.2 µM. As for `CCN1C(Cl)=NS(=O)(=O)c2ccccc21`, the EC50 is over 200 µM and the IC50 was 91.2 µM. For the molecule `COc1nc(NC2OCC(OC(C)=O)C(OC(C)=O)C2OC(C)=O)c(-c2csc(N)n2)c(=O)n1C` (centres undefined), the outcome was inactive.

With `N#Cc1cc2cccn2c2c1cnn2-c1ccccc1`, the EC50 was over 200 µM and the IC50 was 43.7 µM. The like results for `COc1cc(C(C)O)c[n+](CCc2c[nH]c3ccccc23)c1` (centres undefined) were, in that order, over 234 µM and over 234 µM. `CCOC(=O)/C(=C/c1ccc(OC)cc1)C(=O)c1ccccc1`: the EC50 is over 17 µM and the concentration for half-maximal inhibition (IC50) was over 17 µM.

Turning to `O=C(O)c1ccc(CS(=O)c2ccc([N+](=O)[O-])cc2)c([N+](=O)[O-])c1` (centres undefined), the EC50 is over 708 µM and the IC50 came to 501 µM. Regarding `CC(C)CCCC(C)[C@H]1CC[C@H]2[C@@H]3CC[C@H]4C[C@@H](CCC=C(c5cc(Cl)c(OCc6cccc([N+](=O)[O-])c6)c(C(=O)O)c5)c5cc(Cl)c(OCc6cccc([N+](=O)[O-])c6)c(C(=O)O)c5)CC[C@]4(C)[C@H]3CC[C@]12C` (some centres undefined), the EC50 is 95.5 µM and the IC50 is over 200 µM. `CC1c2c(cc(=O)[nH]c2O)C(=O)N1C` (centres undefined): the EC50 is over 245 µM and the IC50 is over 245 µM. On to `Clc1ccc2nc(-c3ccc(Cl)c(Cl)c3)cc(-c3ccccc3)c2c1`, for which the EC50 is over 200 µM and the IC50 is over 200 µM. With `S=c1sc2nc(Cl)nc(Cl)c2s1`, the EC50 is over 200 µM and the IC50 was 13.2 µM. As for `COc1ccc2c(c1)c(=O)c1c(NCCN(C)C)ccc3c(=O)n(CCN(C)C)c(=O)n2c31`, the EC50 was 0.0204 µM and the IC50 amounted to 0.0324 µM. Turning to `O=C(O)CCSSCCC(=O)O`, the EC50 was over 200 µM and the IC50 was over 200 µM. Take `CC1=NN(c2nc(N)nc(C(C)Sc3cc(Cl)c(C)cc3S(N)(=O)=O)n2)C(C)(C)C1` (centres undefined): the EC50 is over 200 µM and the IC50 amounted to 42.7 µM. In the case of `COc1cc2c(cc1OC)C1CNC(C2)c2cc(OC)c(OC)cc21` (centres undefined), the EC50 is over 200 µM and the IC50 is over 200 µM. Turning to `CC(C)CC(C(N)=O)C(=O)NC(Cc1ccccc1)NC(=O)CNC(=O)C(C)NC(=O)C(N)Cc1ccc(O)cc1` (centres undefined), the EC50 was over 200 µM and the half-maximal inhibitory concentration (IC50) was over 200 µM. Regarding `NC(CSS(=O)(=O)O)=NCc1ccccc1`, the EC50 is over 200 µM and the IC50 was over 200 µM.

Take `NC(N)=Nc1ccc(-c2ccc(N=C(N)N)cc2)cc1`: the EC50 was over 200 µM and the half-inhibitory concentration (IC50) was determined as 25.1 µM. Consider `O=C(NNC(=O)c1ccncc1)c1ccncc1`, for which the EC50 is over 200 µM and the IC50 is over 200 µM.

Consider `CC1CN2C(=O)[C@@H](OC(=O)Nc3cc([N+](=O)[O-])cc([N+](=O)[O-])c3)[C@H]3CC[C@@H]1[C@]32C` (some centres undefined), for which the EC50 was over 100 µM and the IC50 stood at 55 µM.

As to `CCOc1ccccc1N=Nc1c(-c2ccccc2)nn(C(=O)CC(=O)Nc2cccc(Cl)c2)c1-c1ccccc1`, the EC50 was over 45.7 µM and the IC50 was over 45.7 µM.

As to `CN(C)c1ccc(/C=c2\sc3nc4ccccc4n3c2=O)cc1`, the EC50 is over 0.851 µM and the IC50 was over 0.851 µM. For `CCN1Cc2c(/C=C/c3ccccc3)nc3ccc(OC)cc3c2N(c2cccc(Cl)c2)C1`, the EC50 was over 41.7 µM and the IC50 turned out to be 7.76 µM. `COc1cc(C2c3cc4c(cc3OC(N3CCOCC3)C2C)OCO4)cc(OC)c1OC` (centres undefined): the EC50 is over 200 µM and the IC50 came to 1.86 µM. The like results for `Cc1cc(C)nc(NS(=O)(=O)c2ccc(NC(=O)c3cccc4c(Nc5ccc(S(=O)(=O)Nc6nc(C)cc(C)n6)cc5)c5ccc(Cl)cc5nc34)cc2)n1` were, in that order, over 85.1 µM and over 85.1 µM. Take `NC(=O)c1c[se]c(C2OC(COP(=O)(O)CP(=O)(O)OCC3OC(n4cnc5c(N)ncnc54)C(O)C3O)C(O)C2O)n1` (centres undefined): the EC50 was over 100 µM and the IC50 was found to be 16.6 µM. For `CN1CCCOC(c2ccc([N+](=O)[O-])cc2)O1` (centres undefined), the EC50 was over 200 µM and the IC50 is over 200 µM. For `Oc1cc(Cl)cc2cc(Br)cnc12`, the result was inactive.

For `CC1(C)N([O-])[N+](=O)C1(C)Br` (centres undefined), the EC50 is over 200 µM and the IC50 is over 200 µM. In the case of `CC(C)Cn1cnc2c(NCC(C)O)nc3ccccc3c21` (centres undefined), the EC50 is over 200 µM and the IC50 worked out at 87.1 µM. Take `O=c1oc2ccc(Br)cc2cc1-n1nnc2cc([N+](=O)[O-])ccc21`: the EC50 is over 17.4 µM and the IC50 was over 17.4 µM.

In the case of `CCOC(=O)c1c2ccccc2n2c(=O)n(-c3ccc(OC)cc3)nnc12`, the EC50 was over 57.5 µM and the IC50 was 32.4 µM. As for `COC(=N)C12C(N)=NC(OC)(OC)C1(C#N)C21C(=O)N(c2ccccc2)N=C1C` (centres undefined), the EC50 is over 200 µM and the IC50 worked out at 97.7 µM. With `COc1ccc(C2SCC(=O)N2NC(=O)c2ccc(NC(C)=O)cc2)cc1` (centres undefined), the EC50 was over 35.5 µM and the IC50 is over 35.5 µM. Consider `Nc1ccccc1SSc1ccccc1C(=O)O`, for which the EC50 was 35.5 µM and the IC50 was found to be 41.7 µM.

As to `O=[N+]([O-])c1ccc2c(c1)Sc1ccccc1N2`, the EC50 was over 200 µM and the IC50 amounted to 60.3 µM. `CC(=O)c1cccc(NC(=O)C(=O)NNc2n[nH]c(=S)n2N)c1`: the EC50 is over 282 µM and the IC50 is 6.76 µM. The like results for `Cc1ccc2c(c1)NC(=O)CC(c1ccccc1)=N2` were, in that order, over 200 µM and 115 µM.

With `CCN(CC)C(=O)CC12CCCCC1=Nc1ccccc12` (centres undefined), the EC50 is over 871 µM and the half-inhibitory concentration (IC50) amounted to 550 µM. Take `COc1ccc(C(c2ccc(OC)cc2)N2C(=O)CCC2C(=O)O)cc1` (centres undefined): the EC50 was over 200 µM and the concentration for half-maximal inhibition (IC50) is over 200 µM. Consider `O=C1C2C(C(=O)N1c1ccccc1)C(c1ccccc1)N(c1ccccc1)C2c1ccccc1` (centres undefined), for which the EC50 was over 22.4 µM and the IC50 stood at 15.8 µM.

As to `Clc1c2ccccc2[se][n+]1Cc1ccccc1`, the EC50 was over 15.1 µM and the IC50 was determined as 12.3 µM. As for `Cc1cc(O)ccc1C1(c2ccc(O)cc2C)OS(=O)(=O)c2ccccc21`, the outcome was inactive. As for `CCCCCCC(=O)C/C(=N/NC(N)=S)C(=O)NC1C2CC3CC(C2)CC1C3` (centres undefined), the EC50 is over 219 µM and the IC50 is over 219 µM. `C[C@]12CCNC(=O)C=C1CC[C@@H]1C2CC[C@@]2(C)C1CC[C@@H]2OC(=O)COc1ccc(N(CCCl)CCCl)cc1` (some centres undefined): the outcome was inactive. As to `COC(=O)N1CC2CC(=O)OCC2[C@@H]1CO` (some centres undefined), the EC50 is over 724 µM and the IC50 was over 724 µM.

Regarding `OCC1C(CO)C2CC1C1N=NN(c3ccccc3)C21` (centres undefined), the EC50 is over 324 µM and the IC50 is over 324 µM. Regarding `CN1CCCCCCC1CO` (centres undefined), the outcome was inactive. Consider `CCCCCCCCCCCCSS(=O)(=O)c1ccc(C)cc1`, for which the EC50 is over 20.4 µM and the IC50 was 13.8 µM. In the case of `CN(C)c1ccc(-c2c3ccccc3nc3ccccc23)cc1`, the EC50 is over 4.57 µM and the IC50 is over 4.57 µM.

Take `Cc1nnc2sc(C(=O)O)nn12`: the EC50 was over 200 µM and the 50% inhibitory concentration (IC50) was over 200 µM. Consider `Cc1cc(O)cc(O)c1C(=O)O[C@]1(C)C(=O)C=C2C=C(/C=C/C(=O)O)OC=C2C1=O`, for which the outcome was inactive. Regarding `CC(C)=CC1CC(n2cc(C)c(=O)[nH]c2=O)ON1CCO[Si](C)(C)C(C)(C)C` (centres undefined), the result was inactive. For the molecule `COC(=O)c1c2c(cc3c1CC1(Cc4ccc(C(C)=O)cc4C1)C3)CCC2` (centres undefined), the EC50 is over 200 µM and the IC50 is over 200 µM.

Consider `COC(=O)c1c(C)cccc1/C=C1\Cc2ccc(C)c(C)c2C1=O`, for which the EC50 was over 200 µM and the IC50 is over 200 µM. Regarding `COc1ccc(C(=O)CCC(NC(C)=O)C(=O)O)cc1` (centres undefined), the EC50 was over 100 µM and the IC50 was over 100 µM. Regarding `C/C(O)=C(/C=N/C(=S)Nc1ccccc1)C(=O)Nc1ccccc1C`, the EC50 was over 200 µM and the IC50 is 195 µM. For `COc1cc2c(oc(=O)c3cc4cc([Si](C)(C)C)oc4c(OC)c32)c2cccc(O)c12` the same measures were over 1.2 µM and over 1.2 µM. Take `[Cu+2].[O-]/C(=N\N=C/c1cccc(F)c1)c1ccncc1.[O-]/C(=N\N=C\c1cccc(F)c1)c1ccncc1`: the EC50 was over 100 µM and the IC50 is 24.5 µM. For `CC1=C(C(=O)Nc2cc(F)c(F)cc2F)C(c2ccc3c(c2)OCO3)C(C(=O)Nc2cc(F)c(F)cc2F)=C(C)N1` the same measures were over 61.7 µM and 46.8 µM. As to `Cc1oc2cc(O)ccc2c(=O)c1-c1ccccc1`, the EC50 was over 200 µM and the IC50 was 30.2 µM. Take `Cc1c(C)c2c(c(N)c1C#N)C(=O)N(OS(=O)(=O)c1ccccc1)C2=O`: the EC50 was over 151 µM and the half-inhibitory concentration (IC50) is 25.7 µM.

Values taken from PubChem BioAssay AID179 (DTP/NCI, 2004).
